According to patent publication US20250066395A1, “Detecting and Separating Rare Earth Metal Mixtures” (Board of Regents, The University of Texas System, priority 2023, published 2025):

Source text: We have selected water and ethyl acetate (EtOAc) for their “green solvent” properties of being safe to handle, eco-friendly, little to no hazardous waste, etc.

Soluble in water	Substance
soluble	scandium
soluble	yttrium
